Source: US5683987A, “Therapeutic oligonucleotides targeting the human MDR1 and MRP genes” (The Board of Regents of the University of Nebraska, priority 1995, dated 1997)
Several values for one entry are separate records, joined by “and”; a condition that tells them apart may be missing. Identical values can stand only once. Like-named read-outs stand apart in the source and are kept apart here.

What was measured:
8226/Dox cells [1] = assay: Sensitization of 8226/Dox cells to VCR by MDR-aptameric oligonucleotides; format: cell-based, human; settings: for Fold Increase in Drug Sensitization: compared to media control
8226/Dox cells [2] = assay: Sensitization of 8226/Dox cells to doxorubicin by MDR-oligos (tritiated thymidine uptake); format: cell-based, human; settings: for IC50: read-out: IC50 dose
Procedure: Multidrug resistant tumor cells were incubated with 15 μM of OL(6)mdr oligo, Cohen(1)mdr oligo or a negative-control (HIV-2) oligo for 4 days at 37° C. in a humidified incubation chamber. Varying doses (5-fold serial dilutions) of doxorubicin (from 1×10^-5 M to 1×10^-8 M) were then added to the culture wells after the cells had been subcultured into media without oligos; cells were then incubated in the same culture environment for an additional three days. Radiolabeled (tritiated) thymidine was added to all cultures for 24 hr before harvest. Each data point is the mean of 4 replicates.

[3] = tested on: 8226/Dox human myeloma cells; assay: Sensitization of 8226/Dox cells to Vincristine by MDR-oligos in 5% oxygen; format: cell-based; settings: for IC50: read-out: IC50 dose
Procedure: (§1) As shown in this example, several oligos which target the MDR1 gene are able to sensitize multidrug-resistant cell lines to the cytotoxic effects of the chemotherapeutic agent Vincristine. Tumor cells were treated in vitro with 10 μM of the indicated oligo for 4 days at 37° C., then counted, dispensed into individual tubes, and pulsed with Vincristine at various doses (serial 5-fold dilutions) for 3 hrs. The cells were then washed and seeded into 96-well plates (quadruplicate replicates) for pulsing with tritiated thymidine 3 days later. Cells were harvested the next day (=4th day after drug treatment). Tritiated thymidine uptake was analyzed by liquid scintillation.

[4] = tested on: CEM/VLB10 human leukemia cells; assay: Sensitization of CEM/VLB10 cells to Vincristine by MDR-oligos in 5% oxygen; format: cell-based; settings: for IC50: read-out: IC50 dose
Procedure: as §1

[5] = tested on: 8226/Dox human myeloma cells; assay: Sensitivity of 8226/Dox cells to Vincristine with increasing time after Vincristine exposure; format: cell-based; settings: for Relative Sensitization (fold increase) Day 5: Day 5 after Vincristine exposure; for Relative Sensitization (fold increase) Day 7: Day 7 after Vincristine exposure; for Relative Sensitization (fold increase) Day 9: Day 9 after Vincristine exposure; for IC50: Homo sapiens
Procedure: as §1, with “Tumor cells were treated in vitro with 10 μM of the indicated oligo for 4 days at 37° C., then counted, dispensed into individual tubes, and pulsed with Vincristine at various doses (serial 5-fold dilutions) for 3 hrs.” left out
As shown in this example, it was determined that there was an increase in sensitivity of multidrug-resistant 8226/Dox human myeloma cells to Vincristine with increasing time of incubation following initial exposure to Vincristine. The experimental conditions were identical to those utilized in obtaining the data shown in Table 7, except that the present experiment had two additional time points.

[6] = tested on: A427 human non-small-cell lung adenocarcinoma cell line; assay: Sensitization of A427 lung cancer cells to etoposide by MRP-oligos; format: cell-based
Procedure: The human non-small-cell lung adenocarcinoma cell line A427 was treated with oligos at various concentrations for 4 days in vitro. The cells then were pulsed with various concentrations of etoposide (range 1.6×10^-4 to 1×10^-6 M) for 3 hrs. Next, cells were trypsinized and seeded by volume into 96-well plates with 12 replicates per treatment condition. Three days later, tritiated thymidine was added and the cells harvested the next day.

8226/Dox cells [7] = assay: Sensitization of 8226/Dox cells to Vincristine by an MRP-oligo and MDR-ODNs; format: cell-based, human; settings: for IC50: read-out: IC50 dose
Procedure: as §1
In this example, experimental conditions were identical to those utilized in obtaining the data in Example 2.

[8] = tested on: 8226/Dox4 human myeloma cells; assay: Vincristine IC50 summary after MDR-oligo treatment; format: cell-based; settings: Homo sapiens, read-out: Vincristine IC50
Procedure: (§2) In vitro testing of MDR-Oligonucleotides was done on the multidrug-resistant (MDR+) RPMI-8226/Dox4 human multiple myeloma cell line (gift of Dr. William Dalton, Univ. Arizona Cancer Ctr., Tucson). Cells were incubated in vitro for 4 days at 37° C. with MDR-oligos at 0.2 μM final concentration; pulsed 18 hr with serial 5-fold dilutions of chemotherapeutic drug (vincristine) from 1×10^-4 M to 2×10^-10 M. Cells were then washed, and incubated for an additional 4 days. Tritiated thymidine (^3 H-TdR) was added for last 18 hr to measure status of cellular proliferation. Controls included MDR^+ 8226 cells similarly treated with vincristine but pretreated either with (a) control ODNs, or (b) culture medium only.

8226/Dox4 cells = assay: Parsimonious regression model estimates of count and Vincristine IC50; format: cell-based, human; settings: Homo sapiens, read-out: Estimated IC50
Procedure: as §2
The following mathematical/statistical model was used to analyze the effects of oligos and various drug treatments on targeted tumor cells in these studies. The model is based on experiments which generally involve treatment of tumor cells with one of several ODNs or media only, and with several dose levels of an anti-cancer agent (such as, for example, vincristine (VCR)) or media only. Analysis goals were to model the relationship of cell kill to the dose of VCR (for example), and to compare the effects of the various ODNs.
This final model contained 10 regressor variables.
Various estimates of parameters from the parsimonious model are shown in TABLE 13, which contains the model estimate of the count for each ODN with media only; differences here (when compared to "media only" [no ODN]) reflect the cell kill associated with the ODN alone. TABLE 13 also contains an estimate of IC50 values, the dose of vincristine (VCR) which is estimated to produce an expected count which is exactly half that expected with "media only" [no VCR]. While formal statistical comparisons of the IC50 values of the various ODNs is not possible, an ordering of the ODNs by estimated IC50 values is possible.

[9] = tested on: RPMI-8226/Dox4 human multiple myeloma cell line; assay: Relative activity of MRP-ODNs (summary); format: cell-based; parameters: key: --: no effect; +: weak positive effect; +++++: strong positive effect
[10] = Vincristine IC50 after 4 days with 10 μM oligo, 5% oxygen
[11] = to Vincristine, 10 μM oligo, 5% oxygen

MDR-APT-1: MDR-aptameric oligonucleotide, SEQ ID NO 88: CCCCTGGCGTTACCTCCTCGTTTCT (CCCCTGGCGTTACCTCCTCGTTTCT; chemistry not given here)
Fold Increase in Drug Sensitization (8226/Dox cells [1]): 40,000 fold

OL(6)mdr: SEQ ID NO 1: CCCACGCCCC GGCGCTGTTC (CCCACGCCCCGGCGCTGTTC; chemistry not given here)
IC50 (8226/Dox cells [2]; doxorubicin IC50 after 4 days with 15 μM oligo, tritiated thymidine uptake): 180 nM | Relative sensitization (fold increase) (8226/Dox cells [2]; to doxorubicin, 15 μM oligo, vs medium only): 3.6 fold increase | IC50 [3, 10]: 220 nM | Relative sensitization (fold increase) [3, 11]: 2.5 fold increase | IC50 [4, 10]: 120 nM | Relative sensitization (fold increase) [4, 11]: 83 fold increase | Relative Sensitization (fold increase) Day 5 ([5]; oligo 2 μM): 1.6 fold increase | Relative Sensitization (fold increase) Day 7 ([5]; oligo 2 μM): 3.5 fold increase | Relative Sensitization (fold increase) Day 9 ([5]; oligo 2 μM): 61 fold increase | Relative Sensitization (fold increase) Day 5 ([5]; oligo 10 μM): 1.8 fold increase | Relative Sensitization (fold increase) Day 7 ([5]; oligo 10 μM): 15.9 fold increase | Relative Sensitization (fold increase) Day 9 ([5]; oligo 10 μM): 550 fold increase | Etoposide (VP-16) Relative Sensitization (fold increase) ([6]; oligo 1 μM): 0 fold increase | Etoposide (VP-16) Relative Sensitization (fold increase) ([6]; oligo 2.5 μM): 0 fold increase | Etoposide (VP-16) Relative Sensitization (fold increase) ([6]; oligo 5.0 μM): 1.2 fold increase | Etoposide (VP-16) Relative Sensitization (fold increase) ([6]; oligo 10 μM): 1.6 fold increase

MDR-APT-3: MDR-aptameric oligonucleotide, SEQ ID NO 90: CGGTCCGTTA TGTTCCTG (CGGTCCGTTATGTTCCTG; chemistry not given here)
Fold Increase in Drug Sensitization (8226/Dox cells [1]): 5,714 fold

COc1cccc2c1C(=O)c1c(O)c3c(c(O)c1C2=O)C[C@@](O)(C(=O)CO)C[C@@H]3O[C@H]1C[C@H](N)[C@H](O)[C@H](C)O1 [doxorubicin, reference compound]
IC50 (8226/Dox cells [2]; Homo sapiens): 650 nM

CC[C@]1(O)C[C@H]2CN(CCc3c([nH]c4ccccc34)[C@@](C(=O)OC)(c3cc4c(cc3OC)N(C=O)[C@H]3[C@@](O)(C(=O)OC)[C@H](OC(C)=O)[C@]5(CC)C=CCN6CC[C@]43[C@@H]65)C2)C1 [Vincristine, reference compound]
IC50 ([3]; Homo sapiens): 450 nM | IC50 ([4]; Homo sapiens): 10000 nM | IC50 ([5]; 120 h, read-out: IC50 Value on Day 5): 440 nM | IC50 ([5]; 168 h, read-out: IC50 Value on Day 7): 7000 nM | IC50 ([5]; 216 h, read-out: IC50 Value on Day 9): 550000 nM | IC50 (8226/Dox cells [7]; Homo sapiens): 1100 nM | IC50 [8]: 12000 nM | IC50 (8226/Dox4 cells): 12800 nM | IC50 (8226/Dox cells [1]; Homo sapiens, VCR, Media (no oligo)): 40000 nM

MDR-APT-2: MDR-aptameric oligonucleotide, SEQ ID NO 89: TTCGCCTGATTTCCGCCTCCCGTCT (TTCGCCTGATTTCCGCCTCCCGTCT; chemistry not given here)
Fold Increase in Drug Sensitization (8226/Dox cells [1]): 20,000 fold

OL(8)MRP: SEQ ID NO 64: GCGGGATGAT GATGGCGGCG (GCGGGATGATGATGGCGGCG; chemistry not given here)
Etoposide (VP-16) Relative Sensitization (fold increase) ([6]; oligo 2.5 μM): 2.0 fold increase | Etoposide (VP-16) Relative Sensitization (fold increase) ([6]; oligo 5.0 μM): 3.6 fold increase | Etoposide (VP-16) Relative Sensitization (fold increase) ([6]; oligo 10 μM): 18 fold increase and 18.0 fold increase | IC50 (8226/Dox cells [7]; Vincristine IC50 after oligo treatment, conditions as Example 2): 55 nM | Relative sensitization (fold increase) (8226/Dox cells [7]; to Vincristine, vs medium only): 20 fold increase | Relative Activity [9]: +++++
